Measurements reported in patent EP4603105A1, “PHARMACEUTICAL COMPOSITION CONTAINING CYCLIC COMPOUND HAVING SELECTIVE KRAS INHIBITORY EFFECT AGAINST HRAS AND NRAS” (CHUGAI SEIYAKU KABUSHIKI KAISHA, priority 2022, dated 2024).
Where a SMILES comes first, the peptide text is derived from it. Bridges are numbered along the chain shown (N, C = ends). [ ]: non-standard residue; d: D form. The star is where a group is joined. hPhe(3,5-F2-4-CF3) = N[C@@H](CCc1cc(F)c(C(F)(F)F)c(F)c1)C(=O)O; hPhe(3-Cl-4-CF3) = N[C@@H](CCc1ccc(C(F)(F)F)c(Cl)c1)C(=O)O; NPrPhe(4-CF3) = CCCN[C@@H](Cc1ccc(C(F)(F)F)cc1)C(=O)O; NMeAbu(4,4,4-F3) = CN[C@@H](CC(F)(F)F)C(=O)O; NMeGly(cPent) = CN[C@H](C(=O)O)C1CCCC1; Pro(4,4-F2) = O=C(O)[C@@H]1CC(F)(F)CN1; NMeD = CN[C@@H](CC(=O)O)C(=O)O; NMeL = CN[C@@H](CC(C)C)C(=O)O; αMeV = CC(C)[C@](C)(N)C(=O)O; αMeS = C[C@](N)(CO)C(=O)O; Morpholide = C1CN(*)CCO1; Ac5c = NC1(C(=O)O)CCCC1; Aze = O=C(O)[C@@H]1CCN1; Sar = CNCC(=O)O

Experiments:
[1] = test system: human lung cancer strain NCI-H441; type: cell-based
How it was run: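 Signal came from […] measured per well once the reagent was added. Beforehand, cells were cultured at 37°C and 5% carbon dioxide on a compound series serially diluted in dimethyl sulfoxide.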

[2] = molecular target: GDP-bound NRAS wild-type protein (Homo sapiens, UniProt P01111); test: Binding to NRAS by surface plasmon resonance (SPR), KD and KD ratio to KRAS
How it was run: (§1)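 Recombinant RAS proteins bearing a biotinylated Avi tag and loaded with GDP served as the captured ligand, recaptured fresh every cycle. Binding responses were referenced to an uncoated surface and a buffer-only blank cycle. Dissociation constants were obtained by 1:1 model fitting at 30°C.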

[3] = molecular target: HRAS wild-type protein (Homo sapiens, UniProt P01112); test: Binding to HRAS by surface plasmon resonance (SPR), KD and KD ratio to KRAS
How it was run: as §1

[4] = ratio of the KD value with respect to GDP-bound NRAS wild-type protein to the KD value with respect to KRAS
[5] = ratio of the KD value with respect to HRAS wild-type protein to the KD value with respect to KRAS
[6] = ratio of KD for GDP-bound NRAS wild-type protein to KD for KRAS
[7] = ratio of KD for HRAS wild-type protein to KD for KRAS
[8] = ratio of KD value for GDP-bound NRAS wild-type protein to KD value for KRAS (SPR)
[9] = ratio of KD value for HRAS wild-type protein to KD value for KRAS (SPR)

Chain of GDP-bound NRAS wild-type protein (P01111 whole entry): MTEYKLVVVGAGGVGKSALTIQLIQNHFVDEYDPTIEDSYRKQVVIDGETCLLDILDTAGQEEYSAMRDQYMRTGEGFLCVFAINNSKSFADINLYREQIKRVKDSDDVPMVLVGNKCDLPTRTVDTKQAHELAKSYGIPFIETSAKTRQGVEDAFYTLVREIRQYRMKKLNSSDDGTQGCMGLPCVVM
Chain of HRAS wild-type protein (P01112 whole entry): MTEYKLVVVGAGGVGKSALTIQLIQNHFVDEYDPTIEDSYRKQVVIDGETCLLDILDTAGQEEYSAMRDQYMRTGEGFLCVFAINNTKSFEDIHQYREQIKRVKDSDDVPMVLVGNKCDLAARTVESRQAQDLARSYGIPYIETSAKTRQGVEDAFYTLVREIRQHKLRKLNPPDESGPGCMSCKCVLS

SMILES	IC50 [1] [nM]	NRAS /KRAS [2, 4]	HRAS /KRAS [3, 5]	NRAS /KRAS [2, 6]	HRAS /KRAS [3, 7]	NRAS /KRAS [2, 8]	HRAS /KRAS [3, 9]
CCCN1C(=O)CN(C)C(=O)CN(C)C(=O)[C@H]([C@@H](C)CC)NC(=O)[C@H](CC(C)C)N(C)C(=O)C[C@@H](C(=O)N(C)C)N(C)C(=O)[C@H](C2CCCC2)N(C)C(=O)[C@](C)(COC)NC(=O)[C@@H]2CCCN2C(=O)[C@H](CCc2cc(F)c(C(F)(F)F)c(F)c2)NC(=O)CN(C)C(=O)[C@@H]1Cc1ccc(C(F)(F)F)cc1 [PP0741] ([NMeL]I[Sar][Sar][NPrPhe(4-CF3)][Sar][hPhe(3,5-F2-4-CF3)]P[αMeS](Me)[NMeGly(cPent)][NMeD]-NMe2; lactam N-11)	51.5	B (a compound having 3 or more and less than 10 is denoted as B)	B (a compound having 3 or more and less than 10 is denoted as B)	–	–	–	–
CCC[C@H]1C(=O)N[C@@H]([C@@H](C)CC)C(=O)N(C)CC(=O)N(C)[C@H]2C/C=C\CCN(C2=O)[C@@H](Cc2ccc(C(F)(F)F)cc2)C(=O)N(C)CC(=O)N[C@@H](CCc2ccc(C(F)(F)F)c(Cl)c2)C(=O)N2CC3(CC3)C[C@H]2C(=O)NC2(CC(C)(C)C2)C(=O)N(C)[C@@H](CC(C)C)C(=O)N(C)[C@H](C(=O)N(C)C)CC(=O)N1C [PP2987]	31.7	–	–	AA (a compound having 20 or more is denoted as AA)	A (a compound having 10 or more and less than 20 is denoted as A)	–	–
CCCN(C)C(=O)[C@@H]1CC(=O)N(C)[C@@H](CC(F)F)C(=O)N[C@@H]([C@@H](C)CC)C(=O)N(C)CC(=O)N(C)[C@H]2C/C=C\CCN(C2=O)[C@@H](Cc2ccc(C(F)(F)F)cc2)C(=O)N(C)CC(=O)N[C@@H](CCc2cc(F)c(C(F)(F)F)c(F)c2)C(=O)N2C[C@@H](C)C[C@H]2C(=O)NC2(CCC2)C(=O)N(C)[C@@H](C2CCCC2)C(=O)N1C [PP2000]	17.7	A (a compound having 10 or more and less than 20 is denoted as A)	B (a compound having 3 or more and less than 10 is denoted as B)	–	–	–	–
CCOC[C@H]1C(=O)N[C@@H]([C@@H](C)CC)C(=O)N(C)CC(=O)N(C)[C@H]2C/C=C\CCN(C2=O)[C@@H](Cc2ccc(C(F)(F)F)cc2)C(=O)N(C)CC(=O)N[C@@H](CCc2ccc(C(F)(F)F)c(OC)c2)C(=O)N2C[C@@H](C)C[C@H]2C(=O)NC2(CCC2)C(=O)N(C)[C@@H](C2CCCC2)C(=O)N(C)[C@H](C(=O)N(C)CC)CC(=O)N1C [PP2026]	22.6	A (a compound having 10 or more and less than 20 is denoted as A)	A (a compound having 10 or more and less than 20 is denoted as A)	–	–	–	–
CC[C@H](C)[C@@H]1NC(=O)[C@H](CC(C)C)N(C)C(=O)C[C@@H](C(=O)N2CCOCC2)N(C)C(=O)[C@H](C2CCCC2)N(C)C(=O)C2(CCC2)NC(=O)[C@@H]2C[C@@H](OC)CN2C(=O)[C@H](CCc2cc(F)c(C(F)(F)F)c(F)c2)NC(=O)CN(C)C(=O)[C@H](Cc2ccc(C(F)(F)F)cc2)N2CCCCC[C@@H](C2=O)N(C)C(=O)CN(C)C1=O [PP1016]	61.2	–	–	A (a compound having 10 or more and less than 20 is denoted as A)	B (a compound having 3 or more and less than 10 is denoted as B)	–	–
CCCOC[C@H]1C(=O)N[C@@H]([C@@H](C)CC)C(=O)N(C)CC(=O)N(C)[C@H]2C/C=C\CCN(C2=O)[C@@H](Cc2ccc(C(F)(F)F)cc2)C(=O)N(C)CC(=O)N[C@@H](CCc2ccc(C(F)(F)F)c(OC)c2)C(=O)N2C[C@H](OCC)C[C@H]2C(=O)NC2(CC(C)(C)C2)C(=O)N(C)[C@@H](C2CCCC2)C(=O)N(C)[C@H](C(=O)N(C)CC)CC(=O)N1C [PP1973]	8.7	A (a compound having 10 or more and less than 20 is denoted as A)	B (a compound having 3 or more and less than 10 is denoted as B)	–	–	–	–
CCCN1C(=O)[C@@H]2CCN2C(=O)CN(C)C(=O)[C@H]([C@@H](C)CC)NC(=O)[C@H](CC(C)C)N(C)C(=O)C[C@@H](C(=O)N2CCOCC2)N(C)C(=O)[C@H](C2CCCC2)N(C)C(=O)[C@](C)(C(C)C)NC(=O)[C@@H]2CCCN2C(=O)[C@H](CCc2cc(F)c(C(F)(F)F)c(F)c2)NC(=O)CN(C)C(=O)[C@@H]1Cc1ccc(C(F)(F)F)cc1 [PP0792] ([NMeL]I[Sar][Aze][NPrPhe(4-CF3)][Sar][hPhe(3,5-F2-4-CF3)]P[αMeV][NMeGly(cPent)][NMeD]-Morpholide; lactam N-11)	112	–	–	C (A compound having a KD ratio of 0.1 or more and less than 3 is denoted as C)	B (a compound having 3 or more and less than 10 is denoted as B)	–	–

These reach a lower IC50 [1]. Values come first.

IC50 [1] [nM]	SMILES	NRAS /KRAS [2, 4]	HRAS /KRAS [3, 5]	NRAS /KRAS [2, 6]	HRAS /KRAS [3, 7]	NRAS /KRAS [2, 8]	HRAS /KRAS [3, 9]
2.1	CCO[C@@H]1C[C@H]2C(=O)NC3(CCC3)C(=O)N(C)[C@@H](C3CCCC3)C(=O)N(C)[C@H](C(=O)N(C)CC)CC(=O)N(C)[C@H]3CCC/C=C/c4ccc(cc4)C[C@@H](C(=O)N(C)CC(=O)N[C@@H](CCc4ccc(C(F)(F)F)c(OC)c4)C(=O)N2C1)N1CC/C=C\C[C@@H](C1=O)N(C)C(=O)CN(C)C(=O)[C@H]([C@@H](C)CC)NC3=O [PP1834]	–	–	–	–	A (a compound having 10 or more and less than 20 is denoted as A)	B (a compound having 3 or more and less than 10 is denoted as B)
1.4	CC[C@H](C)[C@@H]1NC(=O)[C@H](CC)N(C)C(=O)C[C@@H](C(=O)N(C)C)N(C)C(=O)[C@H](C2CCCC2)N(C)C(=O)C2(CC(C)(C)C2)NC(=O)[C@@H]2C[C@H](C)CN2C(=O)[C@H](CCc2cc(F)c(C(F)(F)F)c(F)c2)NC(=O)CN(C)C(=O)[C@H](Cc2ccc(C)cc2)N2CC/C=C\C[C@@H](C2=O)N(C)C(=O)CN(C)C1=O [PP1856]	–	–	–	–	A (a compound having 10 or more and less than 20 is denoted as A)	A (a compound having 10 or more and less than 20 is denoted as A)
3.8	CC[C@H](C)[C@@H]1NC(=O)[C@H](CC2CCC2)N(C)C(=O)C[C@@H](C(=O)N(C)C)N(C)C(=O)[C@H](C2CCCC2)N(C)C(=O)C2(CC(C)(C)C2)NC(=O)[C@@H]2CC(F)(F)CN2C(=O)[C@H](CCc2cc(F)c(C(F)(F)F)c(F)c2)NC(=O)CN(C)C(=O)[C@H](Cc2ccc(C(F)(F)F)cc2)N2CC/C=C\C[C@@H](C2=O)N(C)C(=O)CN(C)C1=O [PP1716]	–	–	–	–	AA (a compound having 20 or more is denoted as AA)	A (a compound having 10 or more and less than 20 is denoted as A)
7.9	CCO[C@@H]1C[C@H]2C(=O)NC3(CCCC3)C(=O)N(C)[C@@H](C3CCCC3)C(=O)N(C)[C@H](C(=O)N(C)C)CC(=O)N(C)[C@@H](CC(C)C)C(=O)N[C@@H]([C@@H](C)CC)C(=O)N(C)CC(=O)N(C)[C@H]3C/C=C\CCN(C3=O)[C@@H](Cc3ccc(C(F)(F)F)cc3)C(=O)N(C)CC(=O)N[C@@H](CCc3ccc(C(F)(F)F)c(Cl)c3)C(=O)N2C1 [PP2838]	–	–	AA (a compound having 20 or more is denoted as AA)	A (a compound having 10 or more and less than 20 is denoted as A)	–	–
3.5	CCCN1C(=O)CN(C)C(=O)CN(C)C(=O)[C@H]([C@@H](C)CC)NC(=O)[C@H](CC(F)(F)F)N(C)C(=O)C[C@@H](C(=O)N2CCOCC2)N(C)C(=O)[C@H](C2CCCC2)N(C)C(=O)C2(CCCC2)NC(=O)[C@@H]2CC(F)(F)CN2C(=O)[C@H](CCc2ccc(C(F)(F)F)c(Cl)c2)NC(=O)CN(C)C(=O)[C@@H]1Cc1ccc(C(F)(F)F)cc1 [PP0199] ([NMeAbu(4,4,4-F3)]I[Sar][Sar][NPrPhe(4-CF3)][Sar][hPhe(3-Cl-4-CF3)][Pro(4,4-F2)][Ac5c][NMeGly(cPent)][NMeD]-Morpholide; lactam N-11)	–	–	B (a compound having 3 or more and less than 10 is denoted as B)	C (A compound having a KD ratio of 0.1 or more and less than 3 is denoted as C)	–	–
